{"source": "patent US20180036420A1", "about": "“METHODS FOR ENHANCING THE DELIVERY OF MOLECULES ACROSS THE BLOOD BRAIN BARRIER” (LAM Therapeutics, Inc., priority 2016, published 2018)", "key": {"[1]": {"tested_on": "comprehensive panel of kinases (456 kinases)", "experiment": "Kinase panel binding screen (456 kinases, PIKfyve not included)", "conditions": "screening concentration 1 μM", "text": "Next, apilimod was screened against a comprehensive panel of kinases (PIKfyve not included)."}, "[2]": {"tested_on": "PI(3,5)P2 in H4 neuroglioma cells", "experiment": "Immunostaining of PI(3,5)P2 in H4 neuroglioma cells", "assay_type": "cell-based, human", "conditions": "after 24 h", "text": "(§1) PIKfyve produces the lipid products PI(3,5)P2 and PI5P, which in turn serve to establish membrane identity and control endolysosomal dynamics. Studies have shown that the PI(3,5)P2 depletion arising from inhibition of PIKfyve produces a swollen endolysosome phenotype. […] This phenotype was reversible, and cell lines reverted to normal appearance within 3-4 days after drug removal."}, "[3]": {"tested_on": "H4 neuroglioma cells", "experiment": "DIC imaging of endolysosomal (vacuole) phenotype in H4 neuroglioma cells", "assay_type": "cell-based, human", "text": "FIG. 4: Left: DIC images of H4 transduced with either non-targeting shRNA (control) or hairpin targeted to the PIKFYVE gene (shPIKFYVE). Right: Viability of H4 cells after the induction of either control or PIKFYVE shRNA with doxycycline.\nas §1"}}}
{"smiles": "Cc1cccc(/C=N/Nc2cc(N3CCOCC3)nc(OCCc3ccccn3)n2)c1", "note": "[apilimod]", "values": [{"measurement": "binding to kinases of the panel", "setting": "[1]", "value": "did not bind to any of the 456 kinases tested"}, {"measurement": "decrease of PI(3,5)P2", "setting": "[2]", "value": "~70", "unit": "%"}, {"measurement": "endolysosomal (vacuole) phenotype", "setting": "[3]; H4 neuroglioma cells, 100 nM apilimod, 24 hrs (FIG. 3)", "value": "striking swollen endolysosomal (vacuole) phenotype"}, {"measurement": "time to revert to normal appearance after drug removal", "setting": "[3]; after drug removal", "value": "3 to 4", "unit": "days"}]}
